Marks after values point to notes of the source that are not given here.
Assays:
Pseudomonas syringae = assay: Microplate bacterial growth assay against Pseudomonas syringae; format: cell-based; conditions: grade x repeats x days of activity /252 x100
Method: Summary: Diluted purified neo-bavaisoflavone was added to microplate wells and mixed with […] of frozen bacteria suspension and growth of the bacteria was monitored by visual inspection.
Background: Pseudomonas is a rod-shaped Gram-negative bacterium. Frozen bacteria stock of 60% glycerol was used as an inoculum for the screening experiment.
1) Take a plate with Neo-bavaisoflavone (10 ul) from the −20° C. freezer and thaw it on the bench for at least 20 min
2) Add 80 ul of bacteria suspension with growth medium to each well of the microplate using a multi-pipette
4) Shake the plate for 10 min at 2000 RPM to mix the Neo-bavaisoflavone with the bacteria suspension
6) Insert the plates to a plastic box with cover and put the box in the incubator at 28° C.
1) Screen the microplate at 5 dates: 3, 5, 7, 14 and 21 days after inoculation
2) Use a lamp to visually evaluate the bacterial growth
3) Prepare plates for screening: shake plate at 2000 RPM for 2 min to suspend the bacteria and then centrifuge plate at 1000 RCF for a few seconds
5) Compare the transparency of each well to the transparency of the control wells (wells containing control bactericide or 0.5% DMSO solution)
Write the results on a special form: clear=3 (no growth of bacteria), turbid=1(normal bacterial growth), inconclusive=2 (very low turbidity compared to growth in 0.5% DMSO solution) […]

Pythium aphanidermatum = assay: Microplate zoospore growth assay against Pythium aphanidermatum; format: cell-based; conditions: grade x repeats x days of activity /252 x100
Method: Summary: Diluted purified neo-bavaisoflavone was added to microplate wells and mixed with 50 ul of zoospores in PDBC suspension and the growth of the fungus, starting from zoospores, was monitored by plate reader and visual inspection
2) Add 50 ul of zoospore suspension inoculum to the wells of the microplate using a multi-pipette. Mix the spore suspension vigorously by hand and decant amount needed for one plate (5 ml) to keep the zoospores well suspended
(§1) 4) Shake the plate for 10 min at 2000 RPM to mix the neo-bavaisoflavone with the hyphae suspension
(§2) 7) Read the plate using the plate reader
(§3) 9) Insert collected plates to a plastic box with cloth cover and put the box in the incubator at 27° C.
1) Read out the plate at 3 more dates: 3d, 7d, 14d and 21d following the assay start
2) Calculate the difference of absorbance between each readout and the readout at zero time
(§4) 3) Calculate the percentage of growth inhibition of each well at each time point. Use the results of the DMSO treatment of the control plate as 100% growth
4) Prepare a table of the results of hits that were repeated in all 4 repeats. Set a column for each time point.
(§5) The bioactivity values are in % and reflect the potential of eradicating the target pests.
b. […]

Botrytis cinerea = assay: In-vitro screening against Botrytis cinerea; format: cell-based; conditions: grade x repeats x days of activity /168 x100
Description: as §5
c. Botrytis cinerea—activity grade (1/2/3) X repeats# X days of activity/168 (maximal value 3×4×14=168)*100

Fusarium oxysporum = assay: In-vitro screening against Fusarium oxysporum; format: cell-based; conditions: grade x repeats x days of activity /252 x100
Description: as §5
(§6) b. Pseudomonas syringae, Rhizoctonia solani, Fusarium oxysporum, Pythium aphanidermatum—activity grade (1/2/3) X repeats# X days of activity/252 (maximal value 3×4×21=252)*100

Mizus Persicae = assay: In-vitro screening matrix, Mizus Persicae
Description: as §5

Puccinia sorghi [1] = assay: Puccinia infection of corn seedlings test (growth room); format: in vivo; conditions: corn plants, five independent growth room experiments
Description: FIGS. 1-5 show effect of neo-bavaisoflavone (NBI) on corn leaf infection by Puccinia sorghi in five independent experiments, determined as leaf % covered by the fungus. *—p-value <0.05, **—p-value is <0.01, *** —p-value is <0.001. Signum—A reference fungicide containing 26.7% w/w boscalid and 6.7% w/w pyraclostrobin (BASF®). Fl, Formulation 1; F2, Formulation 2—see Example 5. ppm—parts per million.
In order to assist the compound dissolution to final working concentration and its spread over the sprayed surface first dry weighed Neo-bavaisoflavone was dissolved in dimethyl-sulfoxide solvent with 1:9 ratio and then brought up to the final volume used for the validation with double distilled water. Before spraying, non-ionic detergent tween 20 was added to final concentration of 0.05%.
In order to assist the compound dissolution to final working concentration and its spread over the sprayed surface first dry weighed Neo-bavaisoflavone was dissolved in absolute ethanol with 1:8 ratio, sonicated for 5 mins and then another part of non-ionic detergent tween 20 was added for formulation finalization. Before spraying, additional amount of 0.05% tween 20 was added (disregarding amount of tween 20 added before).
Protocol name: Puccinia infection of corn seedlings test
General description: inoculation on corn, collection, preparation of spore suspension and material activity study, of Puccinia sorghi.
• Use 8 days old seedlings prepared as explained above • Prepare treatment for spraying—about 1 ml for each plant • Add Tween 20 up to 0.05% to the treatments • Spray treatment on to the leaves till full saturation (use a spray bottle) and let dry in the growth room • Repeat spray on the second day and let dry • On the second day (after about 4 hours from the treatment spray) inoculate plants using the Puccinia spore suspension • Use spraying bottle to spray about 1 ml (till full saturation) of the spore suspension on to the leaves of 9 days old corn seedlings • Put the pots with the inoculated seedlings in a dark moist chamber with heated water at the bottom. […]

[2] = tested on: Puccinia stritiformis (yellow rust); assay: Field validation in wheat, yellow rust leaf infection intensity (curative); format: in vivo; conditions: wheat field experiments
[3] = tested on: Puccinia stritiformis (yellow rust); assay: Uredospores of yellow rust in pustules on field-treated wheat leaves (experiment 108); format: in vivo
Phytophthora infestans = format: cell-based; conditions: activity grade x repeats /12 x100
Rhizoctonia solani = assay: Microplate hyphae growth assay against Rhizoctonia solani; format: cell-based; conditions: grade x repeats x days of activity /252 x100
Method: Summary: Diluted purified neo-bavaisoflavone was added to microplate wells and mixed with 50 ul of hyphae suspension and growth of the fungus, starting from blended hyphae, was monitored by plate reader and visual inspection.
2) Add 50 ul of hyphae suspension to the wells of the microplate using a multi-pipette, mix the spore suspension vigorously by hand and decant amount needed for one plate (5 ml) to keep the hyphae well suspended
as §1, §2, §3
1) Screen plate at 3 more dates: 3d, 7d, 14d and 21d following the assay start
2) Calculate the difference of absorbance between each screen and the read at zero time
as §4, §5, §6

Sclerotinia sclerotiorum = assay: Microplate hyphae growth assay against Sclerotinia sclerotiorum; format: cell-based
Method: Summary: Diluted purified neo-bavaisoflavone was added to microplate wells and mixed with 50 ul of hyphae suspension and growth of the fungus starting from blended hyphae was monitored by visual inspection.
Background: Sclerotinia sclerotiorum is a fungus of belonging to the Ascomycetes and it is a soil borne pathogen. It is difficult to produce large amounts of spores of Sclerotinia sclerotiorum, that led to decision to use hyphae in this screening rather than spores for inoculation.
2) Add 50 ul of hyphae suspension to the wells of the microplate, mix the spore suspension vigorously by hand and decant amount needed for one plate (5 ml) to keep the hyphae well suspended
as §1
7) Insert microplates into a plastic box and put the box in the incubator at 21° C.
1) Screen plate at […]: 4, 7, 14 and 21 days after inoculation
2) Use a lamp for visual assessment of compounds effect on fungal growth overtime
4) Compare the hyphal growth of each well to the hyphal growth of the control plate wells (Wells containing active fungicides or 0.5% DMSO solution)
5) Write the results on a special form: clear well=3 (no growth of hyphae), normal hyphal structure=1 (normal growth), inconclusive=2 (solid structure of unexpected type, or partial cover of the area) […]

[4] = tested on: Pectobacterium carotovorum; assay: In-vitro screening against Pectobacterium carotovorum; format: cell-based; conditions: grade x repeats x days of activity /84 x100
Description: as §5
d. Pectobacterium carotovorum—activity grade (1/2/3) X repeats# X days of activity/84 (maximal value 3×4×7=[…])*100

Puccinia sorghi [5] = format: cell-based
Spodoptera litoralis = assay: In-vitro screening matrix, Spodoptera litoralis
Description: as §5

Puccinia triticina = Puccinia triticina infected wheat, growth room under controlled temperature; format: in vivo; conditions: 200 ppm
Description: Mean of 3 independent replicates is presented. ** means that p-value is <0.01. Formulation 1 see “Formulation preparation for in-planta validation” below.
We conducted 3 independent experiments in greenhouse where we estimated neo-bavaisoflavone's (NBI) potential to prevent and control Puccinia triticina in wheat plants (FIG. 6). Each bar in FIG. 6 represents average of four replicates per treatment. Neo-bavaisoflavone controlled the leaf rust with the following efficacies: between 30% to 50% at 200 ppm and between 30% to 40% at 400 ppm. One additional experiment was conducted under controlled temperature in growth room conditions (FIG. 7) where neo-bavaisoflavone controlled the wheat leaf rust with the efficacy up to 40% at 200 ppm.

[6] = Day 0 after field treatment, ±SE, experiment 108
[7] = Day 7 after field treatment, only one case, no replicates

CC(C)=CCc1cc(-c2coc3cc(O)ccc3c2=O)ccc1O [Neo-bavaisoflavone]
Relative Activity value (%) (Pseudomonas syringae): 100% | Relative Activity value (%) (Pythium aphanidermatum): 75% | Relative Activity value (%) (Botrytis cinerea): 0% | Relative Activity value (%) (Fusarium oxysporum): 0% | Relative Activity value (%) (Mizus Persicae): 0% | average efficacy in preventing and controlling Puccinia sorghi (Puccinia sorghi [1]; 200 ppm): 87.39% | average efficacy in preventing and controlling Puccinia sorghi (Puccinia sorghi [1]; 400 ppm): 91.94% | average efficacy in preventing and controlling Puccinia sorghi (Puccinia sorghi [1]; 800 ppm): 94.07% | relative leaf area covered by the fungi [2]: significantly reduced | Collapsed spores (Percent) [3, 6]: 36.8 ± 13.03% | Number of collapsed spores (No./pustule) [3, 6]: 4.8 ± 2.03 No./pustule | Number of uredospores/pustule [3, 6]: 14.8 ± 3.37 No. | Collapsed spores (Percent) [3, 7]: 1.9% | Number of collapsed spores (No./pustule) [3, 7]: 0.8 No./pustule | Number of uredospores/pustule [3, 7]: 6.5* No. | Relative Activity value (%) (Phytophthora infestans): 0% | Relative Activity value (%) (Rhizoctonia solani): 75% | Relative Activity value (%) (Sclerotinia sclerotiorum): 17% | Relative Activity value (%) [4]: 0% | Relative Activity value (%) (Puccinia sorghi [5]): 75% | Relative Activity value (%) (Spodoptera litoralis): 0% | efficacy of wheat leaf rust control (Puccinia triticina): up to 40%
